Target: T1, human PAH with the R408W mutation (Homo sapiens, UniProt P00439, R408W)
T1 construct: expressed in transfected cells
T1 sequence (P00439 1-452 R408W): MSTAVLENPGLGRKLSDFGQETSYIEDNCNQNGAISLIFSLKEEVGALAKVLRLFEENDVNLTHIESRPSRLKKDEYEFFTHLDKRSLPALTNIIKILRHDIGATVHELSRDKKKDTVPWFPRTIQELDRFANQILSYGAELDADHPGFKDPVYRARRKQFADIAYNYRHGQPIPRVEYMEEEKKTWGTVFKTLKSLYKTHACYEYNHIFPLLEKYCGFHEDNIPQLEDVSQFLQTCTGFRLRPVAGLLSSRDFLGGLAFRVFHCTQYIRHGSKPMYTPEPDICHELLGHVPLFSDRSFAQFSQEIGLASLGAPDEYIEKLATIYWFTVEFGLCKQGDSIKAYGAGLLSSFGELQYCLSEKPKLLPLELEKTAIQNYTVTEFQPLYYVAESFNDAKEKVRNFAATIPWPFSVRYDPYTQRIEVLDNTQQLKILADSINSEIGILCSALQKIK
Assay: Cell Based Phenylalanine Flux Assay
Design: scale not given here
Settings: A375 cells expressing human R408W PAH; 24 hrs compound incubation; 13C-Tyrosine by LC-MS; average where tested multiple times; read-out: AC50

SMILES	AC50 [nM]
c1ccc2[nH]c([C@H]3c4nc[nH]c4CCN3Cc3nccs3)nc2c1 (single isomer, unassigned) [Example 926]	> 5000
c1ccc2[nH]c([C@@H]3c4nc[nH]c4CCN3Cc3nccs3)nc2c1 (single isomer, unassigned) [Example 927]	< 500
O=C(CC1CC1(F)F)N1CCc2[nH]cnc2[C@H]1c1nc2ccccc2s1 (single isomer, unassigned) [Example 1271]	< 500
O=C(CC1CC1(F)F)N1CCc2[nH]cnc2[C@H]1c1nc2ccccc2s1 (single isomer, unassigned) [Example 1274]	500 to 1000
O=C(C1CC1(F)F)N1CCc2[nH]cnc2[C@@H]1c1nc2ccccc2s1 (single isomer, unassigned) [Example 1285]	> 5000
O=C(C1CC1(F)F)N1CCc2[nH]cnc2[C@@H]1c1nc2ccccc2s1 (single isomer, unassigned) [Example 1286]	1000 to 5000
O=C(C1CC1(F)F)N1CCc2[nH]cnc2[C@H]1c1nc2ccccc2s1 (single isomer, unassigned) [Example 1287]	> 5000
O=C(C1CC1(F)F)N1CCc2[nH]cnc2[C@H]1c1nc2ccccc2s1 (single isomer, unassigned) [Example 1288]	500 to 1000
CC1(C(=O)N2CCc3[nH]cnc3[C@@H]2c2nc3ccccc3s2)CC1(F)F (single isomer, unassigned) [Example 1289]	1000 to 5000
CC1(C(=O)N2CCc3[nH]cnc3[C@@H]2c2nc3ccccc3s2)CC1(F)F (single isomer, unassigned) [Example 1290]	> 5000
CC1(C(=O)N2CCc3[nH]cnc3[C@H]2c2nc3ccccc3s2)CC1(F)F (single isomer, unassigned) [Example 1291]	500 to 1000
CC1(C(=O)N2CCc3[nH]cnc3[C@H]2c2nc3ccccc3s2)CC1(F)F (single isomer, unassigned) [Example 1292]	1000 to 5000
O=C(c1nnc(-c2ccc(F)cn2)o1)N1CCc2[nH]cnc2[C@H]1c1nc2ccccc2s1 (single isomer, unassigned) [Example 1365]	< 500
Nc1cnc(N2CCc3[nH]cnc3[C@@H]2c2nc3ccccc3s2)nc1 (single isomer, unassigned) [Example 1467]	1000 to 5000
Nc1cnc(N2CCc3[nH]cnc3[C@H]2c2nc3ccccc3s2)nc1 (single isomer, unassigned) [Example 1468]	500 to 1000
CC(O)(c1nc(C(F)(F)F)c(C(=O)N2CCc3[nH]cnc3[C@H]2c2nc3ccccc3s2)o1)C1CC1 (single isomer, unassigned) [Example 1561]	< 500

SMILES	AC50 [nM]
CC(O)(c1nc(C(F)(F)F)c(C(=O)N2CCc3[nH]cnc3[C@H]2c2nc3ccccc3s2)o1)C1CC1 (single isomer, unassigned) [Example 1562]	< 500
CC(O)(c1nc(C(F)(F)F)c(C(=O)N2CCc3[nH]cnc3[C@@H]2c2nc3ccccc3s2)o1)C1CC1 (single isomer, unassigned) [Example 1563]	< 500
CC(O)(c1nc(C(F)(F)F)c(C(=O)N2CCc3[nH]cnc3[C@@H]2c2nc3ccccc3s2)o1)C1CC1 (single isomer, unassigned) [Example 1564]	< 500
CC(O)c1nc(Br)c(C(=O)N2CCc3[nH]cnc3[C@H]2c2nc3c(F)cccc3s2)o1 (single isomer, unassigned) [Example 2057]	< 500
CC(O)c1nc(Br)c(C(=O)N2CCc3[nH]cnc3[C@H]2c2nc3c(F)cccc3s2)o1 (single isomer, unassigned) [Example 2058]	< 500
CC(O)c1nc(Br)c(C(=O)N2CCc3[nH]cnc3[C@@H]2c2nc3c(F)cccc3s2)o1 (single isomer, unassigned) [Example 2059]	1000 to 5000
CC(O)c1nc(Br)c(C(=O)N2CCc3[nH]cnc3[C@@H]2c2nc3c(F)cccc3s2)o1 (single isomer, unassigned) [Example 2060]	500 to 1000
CC(F)c1nc(C(F)F)c(C(=O)N2CCc3[nH]cnc3[C@H]2c2nc3c(F)cccc3s2)o1 (single isomer, unassigned) [Example 2073]	< 500
CC(F)c1nc(C(F)F)c(C(=O)N2CCc3[nH]cnc3[C@H]2c2nc3c(F)cccc3s2)o1 (single isomer, unassigned) [Example 2074]	< 500
CC(F)c1nc(C(F)F)c(C(=O)N2CCc3[nH]cnc3[C@H]2c2nc3c(F)cccc3s2)o1 (single isomer, unassigned) [Example 2075]	< 500
CC(O)c1nc(Cl)c(C(=O)N2CCc3[nH]cnc3[C@H]2c2nc3c(F)cccc3s2)o1 (single isomer, unassigned) [Example 2079]	< 500
CC(O)c1nc(Cl)c(C(=O)N2CCc3[nH]cnc3[C@H]2c2nc3c(F)cccc3s2)o1 (single isomer, unassigned) [Example 2080]	500 to 1000
CC(O)c1nc(Cl)c(C(=O)N2CCc3[nH]cnc3[C@@H]2c2nc3c(F)cccc3s2)o1 (single isomer, unassigned) [Example 2081]	1000 to 5000
CC(O)c1nc(Cl)c(C(=O)N2CCc3[nH]cnc3[C@@H]2c2nc3c(F)cccc3s2)o1 (single isomer, unassigned) [Example 2082]	1000 to 5000
CN(C)CCc1nc(C(F)(F)F)c(C(=O)N2CCCc3[nH]cnc3[C@H]2c2nc3ccccc3s2)o1 (single isomer, unassigned) [Example 2125]	500 to 1000
CN(C)CCc1nc(C(F)(F)F)c(C(=O)N2CCCc3[nH]cnc3[C@@H]2c2nc3ccccc3s2)o1 (single isomer, unassigned) [Example 2126]	1000 to 5000

Same assay, conditions: A375 cells expressing human R408W PAH; 24 hrs with compound; 13C-Tyrosine by LC-MS; average where tested multiple times

SMILES	AC50
COCCc1ncc(C(=O)N2CC(C)c3[nH]cnc3C2c2nc3ccccc3s2)o1 [(4R,7R) diastereomer of 2-[5-[2-(2-methoxyethyl)-1,3-oxazole]	E, E
COCCc1ncc(C(=O)N2CC(C)c3[nH]cnc3C2c2nc3ccccc3s2)o1 [(4R,7S) diastereomer of 2-[5-[2-(2-methoxyethyl)-1,3-oxazole]	E, E

Same assay, conditions: A375 cells expressing human R408W PAH; 24 hrs with compound; 13C-Tyrosine by LC-MS; average where tested multiple times; read-out: AC50

SMILES	AC50 [nM]
CC(=O)Cn1ncc(C(=O)N2CCc3[nH]cnc3[C@@H]2c2nc3c(F)cccc3s2)c1Cl (single isomer, unassigned)	> 5000
Cn1nc(C2CC2)cc1C(=O)N1CCc2[nH]cnc2[C@@H]1c1nc2c(F)cccc2s1 (single isomer, unassigned)	> 5000
Cc1noc(C(=O)N2CCc3[nH]cnc3[C@@H]2c2nc3ccccc3s2)n1 (single isomer, unassigned)	> 5000
Cn1ncc(C(=O)N2CCc3[nH]cnc3[C@@H]2c2nc3c(F)cccc3s2)c1Br (single isomer, unassigned)	> 5000
Cn1ncnc1C(=O)N1CCc2[nH]cnc2[C@@H]1c1nc2c(F)cccc2s1 (single isomer, unassigned)	> 5000
Cc1nc(C(C)(C)S(C)(=O)=O)oc1C(=O)N1CCc2[nH]cnc2[C@@H]1c1nc2c(F)cccc2s1 (single isomer, unassigned)	> 5000
CN(C)CCCc1nnc(C(=O)N2CCc3[nH]cnc3[C@@H]2c2nc3ccccc3s2)o1 (single isomer, unassigned)	> 5000
Cn1nc(CO)cc1C(=O)N1CCc2[nH]cnc2[C@@H]1c1nc2c(F)cccc2s1 (single isomer, unassigned)	> 5000
COC(=O)N1CC(C(=O)N2CCc3[nH]cnc3[C@@H]2c2nc3c(F)cccc3s2)C1 (single isomer, unassigned)	> 5000
O=C(C1CN(CC(F)(F)F)C1)N1CCc2[nH]cnc2[C@H]1c1nc2ccccc2s1 (single isomer, unassigned)	1000 to 5000
Cc1nnc(N2CC(C(=O)N3CCc4[nH]cnc4[C@H]3c3nc4ccccc4s3)C2)o1 (single isomer, unassigned)	> 5000
Cc1c(C(=O)N2CCc3[nH]cnc3[C@H]2c2nc3c(F)cccc3s2)cnn1C (single isomer, unassigned)	1000 to 5000
Cc1nc(CCC2CC2)oc1C(=O)N1CCCc2[nH]cnc2[C@H]1c1nc2ccccc2s1 (single isomer, unassigned)	1000 to 5000
Cn1nc(CC#N)nc1C(=O)N1CCc2[nH]cnc2[C@H]1c1nc2ccccc2s1 (single isomer, unassigned)	1000 to 5000
CC(C)(O)c1cc(C(=O)N2CCc3[nH]cnc3[C@H]2c2nc3ccccc3s2)sn1 (single isomer, unassigned)	1000 to 5000
CN(C)CCCc1nnc(C(=O)N2CCc3[nH]cnc3[C@H]2c2nc3ccccc3s2)o1 (single isomer, unassigned)	1000 to 5000
Cc1nc(-c2ccccn2)oc1C(=O)N1CC2(CC2)c2[nH]cnc2[C@H]1c1nc2ccccc2s1 (single isomer, unassigned)	1000 to 5000
O=C(N1CCC(O)C1)N1CCc2[nH]cnc2C1c1nc2ccccc2s1 [4S enantiomer of (3R)-1-[4-(1,3-benzothiazol-2-yl)-1H,4H,5H,]	1000 to 5000
O=C(Cc1nc(C(F)(F)F)cs1)N1CCc2[nH]cnc2[C@H]1c1nc2ccccc2[nH]1 [(S)-1-(4-(1H-benzo[d]imidazol-2-yl)-1,4,6,7-tetrahydro-5H-imidazo[4,5-c]pyridin-5-yl)-2-(4-(trifluoromethyl)thiazol-2-yl)ethan-1-one]	1000 to 5000
O=C(Cc1ccc(F)cc1)N1CCc2[nH]cnc2[C@H]1c1nc2ccccc2[nH]1 [(S)-1-(4-(1H-benzo[d]imidazol-2-yl)-1,4,6,7-tetrahydro-5H-imidazo[4,5-c]pyridin-5-yl)-2-(4-fluorophenyl)ethan-1-one]	1000 to 5000
